According to paper PMC6352943, “Novel pyrazolo[3,4-d]pyrimidines: design, synthesis, anticancer activity, dual EGFR/ErbB2 receptor tyrosine kinases inhibitory activity, effects on cell cycle profile and caspase-3-mediated apoptosis” (Journal of Enzyme Inhibition and Medicinal Chemistry, 2019):

Columns and labels:
T-47D = assay: NCI 60 cell line single dose screen (SRB); assay type: cell-based; settings: Homo sapiens, T47D; T-47D (breast cancer), single dose 10^−5 M, 48 h; read-out: Growth inhibition percentage
How it was run: (§1)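 Cells were plated and grown 24 h at 37 °C, 5% CO2 before compound addition from DMSO stock, then exposed 48 h. Adherent cells were fixed with cold TCA (final 10%) and suspension cells with 16% TCA. SRB-stained protein was read at 515 nm and percent growth was calculated against time-zero and untreated plates.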

786-0 = assay: NCI 60 cell line single dose screen (SRB); assay type: cell-based; settings: Homo sapiens; 786-0 (renal cancer), single dose 10^−5 M, 48 h; read-out: Growth inhibition percentage
How it was run: as §1

TK-10 = assay: NCI 60 cell line single dose screen (SRB); assay type: cell-based; settings: Homo sapiens; TK-10 (renal cancer), single dose 10^−5 M, 48 h; read-out: Growth inhibition percentage
How it was run: as §1

UACC-257 = assay: NCI 60 cell line single dose screen (SRB); assay type: cell-based; settings: Homo sapiens; UACC-257 (melanoma), single dose 10^−5 M, 48 h; read-out: Growth inhibition percentage
How it was run: as §1

SK-OV-3 = assay: NCI 60 cell line single dose screen (SRB); assay type: cell-based; settings: Homo sapiens; SK-OV-3 (ovarian cancer), single dose 10^−5 M, 48 h; read-out: Growth inhibition percentage
How it was run: as §1

SR = assay: NCI 60 cell line single dose screen (SRB); assay type: cell-based; settings: Homo sapiens; SR (leukemia), single dose 10^−5 M, 48 h; read-out: Growth inhibition percentage
How it was run: as §1

SNB-19 = assay: NCI 60 cell line single dose screen (SRB); assay type: cell-based; settings: Homo sapiens; SNB-19 (CNS cancer), single dose 10^−5 M, 48 h; read-out: Growth inhibition percentage
How it was run: as §1

HT29 = assay: NCI 60 cell line single dose screen (SRB); assay type: cell-based; settings: Homo sapiens, HT-29; HT29 (colon cancer), single dose 10^−5 M, 48 h; read-out: Growth inhibition percentage
How it was run: as §1

HS 578T = assay: NCI 60 cell line single dose screen (SRB); assay type: cell-based; settings: Homo sapiens; HS 578T (breast cancer), single dose 10^−5 M, 48 h; read-out: Growth inhibition percentage
How it was run: as §1

NCI-H522 = assay: NCI 60 cell line single dose screen (SRB); assay type: cell-based; settings: Homo sapiens; NCI-H522 (non-small cell lung cancer), single dose 10^−5 M, 48 h; read-out: Growth inhibition percentage
How it was run: as §1

HCT-116 = assay: NCI 60 cell line single dose screen (SRB); assay type: cell-based; settings: Homo sapiens; HCT-116 (colon cancer), single dose 10^−5 M, 48 h; read-out: Growth inhibition percentage
How it was run: as §1

HL-60(TB) = assay: NCI 60 cell line single dose screen (SRB); assay type: cell-based; settings: Homo sapiens; HL-60(TB) (leukemia), single dose 10^−5 M, 48 h; read-out: Growth inhibition percentage
How it was run: as §1

NCI-H226 = assay: NCI 60 cell line single dose screen (SRB); assay type: cell-based; settings: Homo sapiens; NCI-H226 (non-small cell lung cancer), single dose 10^−5 M, 48 h; read-out: Growth inhibition percentage
How it was run: as §1

HOP-62 = assay: NCI 60 cell line single dose screen (SRB); assay type: cell-based; settings: Homo sapiens; HOP-62 (non-small cell lung cancer), single dose 10^−5 M, 48 h; read-out: Growth inhibition percentage
How it was run: as §1

MALME-3M = assay: NCI 60 cell line single dose screen (SRB); assay type: cell-based; settings: Homo sapiens; MALME-3M (melanoma), single dose 10^−5 M, 48 h; read-out: Growth inhibition percentage
How it was run: as §1

NCI/ADR-RES = assay: NCI 60 cell line single dose screen (SRB); assay type: cell-based; settings: Homo sapiens; NCI/ADR-RES (ovarian cancer), single dose 10^−5 M, 48 h; read-out: Growth inhibition percentage
How it was run: as §1

Row | Structure (SMILES) | inhibition at 10 µM (T-47D) | inhibition at 10 µM (786-0) | inhibition at 10 µM (TK-10) | inhibition at 10 µM (UACC-257) | inhibition at 10 µM (SK-OV-3) | inhibition at 10 µM (SR) | inhibition at 10 µM (SNB-19) | inhibition at 10 µM (HT29) | inhibition at 10 µM (HS 578T) | inhibition at 10 µM (NCI-H522) | inhibition at 10 µM (HCT-116) | inhibition at 10 µM (HL-60(TB)) | inhibition at 10 µM (NCI-H226) | inhibition at 10 µM (HOP-62) | inhibition at 10 µM (MALME-3M) | inhibition at 10 µM (NCI/ADR-RES) | melting point
1 | Cc1nn(-c2ccc(F)cc2)c2nc(N)nc(N)c12 [Compound 5, 1–(4-Fluorophenyl)-3-methyl-1H-pyrazolo[3,4-d]pyrimidine-4,6-diamine] | -2.65% | 2.79% | -13% | -18.7% | -6.26% | -1.68% | -7.94% | -6.5% | -3.27% | 2.08% | -2.75% | 8.85% | -8.08% | -8.35% | -7.8% | -3.45% | > 300 °C
2 | COc1cc(C=NNc2ncnc3c2c(C)nn3-c2ccc(F)cc2)ccc1O [Compound 10b, 1–(4-Fluorophenyl)-4–(2-(4-hydroxy-3-methoxybenzylidene)-hydrazinyl)-3-methyl-1H-pyrazolo[3,4-d]pyrimidine] | 20.1% | 11.3% | 11.3% | -14.1% | 0.81% | 22.9% | 6.67% | 7.7% | 0.89% | 27.1% | -4.51% | 1.69% | -2.3% | -6.39% | -12.4% | 4.3% | 221 to 223 °C
3 | COc1ccc(N2CCN(c3ncnc4c3c(C)nn4-c3ccc(F)cc3)CC2)cc1 [Compound 8d, 1–(4-Fluorophenyl)-4–(4-(4-methoxyphenyl)piperazin-1-yl)-3-methyl-1H-pyrazolo[3,4-d]pyrimidine] | 3.85% | -4.57% | -48% | -6.35% | 3.69% | 8.97% | 2.02% | -1.26% | 5.99% | 3.59% | 7.42% | 11.8% | 5.22% | 1.51% | 5.14% | -3.7% | –
4 | Cc1nn(-c2ccc(F)cc2)c2ncnc(NN)c12 [Compound 9, 1–(4-Fluorophenyl)-4-hydrazinyl-3-methyl-1H-pyrazolo[3,4-d]-pyrimidine] | 32% | -3.72% | -51.2% | -3.21% | 7.98% | 20.2% | 11.3% | 1.62% | -4.22% | 10.3% | 3.99% | 11.8% | 15.5% | 4.27% | 19% | 3.79% | 208 to 210 °C
5 | Cc1nn(-c2ccc(F)cc2)c2ncnc(N3CCOCC3)c12 [Compound 8a, 1–(4-Fluorophenyl)-3-methyl-4-morpholino-1H-pyrazolo[3,4-d]pyrimidine] | -22.2% | 10.6% | 9.75% | -5.9% | -7.07% | 1.18% | 5.14% | 7.56% | -4.78% | 8.03% | -7.69% | 22.5% | -8.48% | -13.6% | -10.5% | -6.35% | –
6 | Cc1nn(-c2ccc(F)cc2)c2ncnc(Cl)c12 [Compound 6, 4-Chloro-1–(4-fluorophenyl)-3-methyl-1H-pyrazolo[3,4-d]pyrimidine] | 0.28% | -0.09% | -23% | 17.4% | 13.7% | 14.4% | 7.79% | 9.55% | 4.54% | 59% | 7.98% | 14% | 15.1% | 15.4% | -4.3% | -8.11% | 178 to 180 °C
7 | Cc1ccc(Nc2ncnc3c2c(C)nn3-c2ccc(F)cc2)cc1 [Compound 7c, 1–(4-Fluorophenyl)-3-methyl-N-(p-tolyl)-1H-pyrazolo[3,4-d]-pyrimidin-4-amine] | 14.6% | 0.56% | 9.04% | -7.62% | -16.7% | 6.02% | 7.21% | 11.7% | 0.7% | 11% | 3.2% | 16% | -10.2% | -14.5% | 1.7% | -6.46% | –
8 | Cc1nn(-c2ccc(F)cc2)c2ncnc(N3CCN(c4ccc(Cl)cc4)CC3)c12 [Compound 8c, 4–(4-(4-Chlorophenyl)piperazin-1-yl)-1–(4-fluorophenyl)-3-methyl-1H-pyrazolo[3,4-d]pyrimidine] | 10.3% | -2.04% | -30.9% | -0.44% | 12.6% | 11% | -4.77% | 5.97% | 3.74% | 8.23% | 1.69% | 25.5% | 7.59% | 4.05% | 4.22% | 6.62% | 167 to 169 °C
9 | Cc1nn(-c2ccc(F)cc2)c2ncnc(N)c12 [Compound 4, 1–(4-Fluorophenyl)-3-methyl-1H-pyrazolo[3,4-d]pyrimidin-4-amine] | 4.18% | 9.41% | -4.14% | -14.2% | -5.01% | 3.35% | -9.19% | 3.34% | -4.94% | 6.49% | -8.66% | 7.87% | -7.4% | -8.24% | 5.86% | 0.66% | > 300 °C
10 | Cc1nn(-c2ccc(F)cc2)c2nc[nH]c(=O)c12 [Compound 3, 1–(4-Fluorophenyl)-3-methyl-1H-pyrazolo[3,4-d]pyrimidin-4(5H)-one] | 0.23% | 1.16% | -3.17% | -8.15% | -2.82% | -1.58% | -3.69% | 3.83% | 0.13% | 4.92% | -1.64% | 6.74% | -9.27% | -6.53% | -8.22% | -1.22% | > 300 °C
